In patent publication US10960084B2, “Modulation of fluid intake” (California Institute of Technology, priority 2018, dated 2021):

Tested on: hM4Di-expressing MnPO^nNOS neurons
Test: Slice current-clamp recording, CNO on hM4Di-expressing MnPO^nNOS neurons
Type: cell-based, mice
Conditions: brain slices
Excerpt: Procedures for preparation of acute brain slices and recordings with optogenetic stimulations were similar to those described previously^[10],[36]. After decapitation, the brain was removed and immersed in ice-cold solution. Coronal slices ([…]) were cut using a vibratome (VT-1200s, Leica) and moved into HEPES-holding solution (NaCl 92, KCl 2.5, NaH2PO4 1.2, NaHCO3 30, HEPES 20, glucose 25, Na-ascorbate 5, Thiourea 2, Na14 pyruvate 3, MgSO4 2, CaCl2 2, pH 7.35). The slices were allowed to recover at 33° C. for 30 min and then held at room temperature ([…]) until use.
While recording, slices were perfused continuously (˜2 mL/min) with artificial cerebrospinal fluid (ACSF-NaCl 124, KCl2.5, NaH2PO4 1.2, NaHCO3 24, glucose 25, MgSO4 1, CaCl2 2) at 25° C. Neurons were visualized and targeted using an upright IR19 DIC microscope (BX51WI, Olympus). […] In order to confirm the PSCs recorded were GABAergic, picrotoxin (150 μM) was applied through the bath in part of the experiments. […] CNO (˜6 μM) was applied by a puff (30 s) from another glass pipette placed ˜50 μm from the recorded cell.

Structure (SMILES): C[N+]1([O-])CCN(C2=Nc3cc(Cl)ccc3Nc3ccccc32)CC1 [CNO, clozapine-N-oxide]
- neurons in which firing is inhibited (CNO application): 6/6
- firing of hM4Di-expressing MnPO^nNOS neurons (brief application of CNO): strongly suppressed the firing
